Assay results published in PubChem BioAssay (NCI).
“And” between values parts separate entries of the source, which are not always exact repeats. Identical values can stand only once.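 Five concentrations, 48 hours, 96-well plates. GI50 is the concentration that inhibits growth by half. TGI denotes the concentration required for complete inhibition of growth.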

Columns and labels:
Experiment in all cases: DTP human tumour cell line panel, 48 h
DMS 273 small cell lung = test system: DMS 273 small cell lung
XF 498 CNS = test system: XF 498 CNS
RXF-631 renal = test system: RXF-631 renal
HOP-18 NSCLC = test system: HOP-18 NSCLC
M19-MEL melanoma = test system: M19-MEL melanoma
DMS 114 small cell lung = test system: DMS 114 small cell lung
MDA-MB-435 = test system: MDA-MB-435
PC-3 prostate = test system: PC-3 prostate
MDA-N = test system: MDA-N

Structure (SMILES) | GI50 (MDA-MB-435) | TGI (MDA-MB-435) | GI50 (PC-3 prostate) | TGI (PC-3 prostate) [µM] | also measured
CN(C)CCNC(=O)c1cccc2cc3c(Cl)cccc3nc12 |  |  |  |  | TGI (DMS 273 small cell lung): > 100 µM; TGI (XF 498 CNS): 1.64 µM; TGI (RXF-631 renal): > 100 µM; TGI (HOP-18 NSCLC): > 27.6 µM; TGI (M19-MEL melanoma): 3.18 µM; TGI (DMS 114 small cell lung): 3.69 µM
CNC(=O)c1cc(Oc2ccc(NC(=O)Nc3ccc(Cl)c(C(F)(F)F)c3)c(F)c2)ccn1 | 1.56 µM and 1.52 µM | 4.8 µM and 4.85 µM | 2.82 µM and 2.7 µM | > 64.6 | 
O=S(=O)(O)c1cc(O)c(N=Nc2ccc(O)cc2O)c2ccccc12 |  | > 100 µM |  | > 100 | TGI (MDA-N): > 100 µM
COc1ccc2c3c([nH]c2c1[N+](=O)[O-])C(C)N(Cc1ccccc1)CC3 (centres undefined) |  |  |  |  | TGI (DMS 273 small cell lung): 11.6 µM; TGI (DMS 114 small cell lung): > 100 µM
NC(=O)c1cc([N+](=O)[O-])c(Cl)c([N+](=O)[O-])c1Cl | 1.93 µM | 3.73 µM | 1.58 µM | 3.1 | 
CC1CC[P+](c2ccccc2)(c2ccccc2)c2c1ccc1ccccc21 (centres undefined) |  | 16.4 µM |  | 7.34 | GI50 (MDA-N): 2.98 µM; TGI (MDA-N): > 28.3 µM
Nc1ccc(C(=O)N/C(=C\c2cccc([N+](=O)[O-])c2)c2nc3[nH]c(=S)[nH]c(=O)c3[nH]2)cc1 |  | > 100 µM |  | > 100 | TGI (XF 498 CNS): 34.3 µM; TGI (MDA-N): > 100 µM; TGI (RXF-631 renal): > 100 µM; TGI (M19-MEL melanoma): > 100 µM; TGI (DMS 114 small cell lung): > 100 µM
NCCCC[C@@H]1NC(=O)[C@H](CC(=O)O)NC(=O)CNC(=O)[C@H](CCCN=C(N)N)NC(=O)[C@@H](N)CSSC[C@@H](C(=O)O)NC(=O)[C@H](CC(=O)O)NC(=O)[C@@H]2CCCN2C(=O)CNC1=O | > 100 µM | > 100 µM | > 100 µM | > 100 | 
O=C(CCCN1CCC(O)(c2ccc(Cl)cc2)CC1)c1ccc(F)cc1 |  | 33.7 µM |  | > 100 | 
COc1ccc2c(c1)[nH]c(=O)c1c3cccc(F)c3cn21 |  |  | 0.0345 µM | > 31.9 | 
CCOC(=O)C(=O)CC1=Nc2ccccc2SC(c2cccc(C)c2)C1 (centres undefined) |  |  |  |  | TGI (DMS 273 small cell lung): 37.9 µM; TGI (RXF-631 renal): 29.4 µM; TGI (M19-MEL melanoma): 40.9 µM; TGI (DMS 114 small cell lung): 35 µM
Cc1ccc(/C=N/Nc2nc(Nc3ccccc3)nc(-n3nc(C)cc3C)n2)cc1 | 4.84 µM | 37.6 µM | 2.67 µM | 23.6 | 
O=C1N2Cc3c4ccc5c3CN3C(=O)N6Cc7c(ccc(c7CN1C6(c1ccccc1)C23c1ccccc1)OCCOCCNCCOCCO4)OCCOCCNCCOCCO5 (centres undefined) |  |  |  |  | TGI (DMS 273 small cell lung): > 100 µM; TGI (XF 498 CNS): > 100 µM; TGI (RXF-631 renal): > 100 µM; TGI (HOP-18 NSCLC): 28.9 µM; TGI (M19-MEL melanoma): > 100 µM; TGI (DMS 114 small cell lung): > 100 µM
Cc1cccc2nc3ccccc3c(Nc3ccc(NS(C)(=O)=O)cc3)c12 | 13.5 µM | 34.2 µM |  |  | 
CCC(C)[C@H](NC(=O)Nc1cc(C(F)(F)F)cc(C(F)(F)F)c1)C(=O)N[C@@H](Cc1cn(C)cn1)C(=O)OC (some centres undefined) | 0.825 µM | 1.85 µM | 0.715 µM | 1.77 | 
c1ccc(C2OC3(CCC[C@H]4C[C@H]43)O[C@H]2c2ccccc2)cc1 (some centres undefined) |  |  |  |  | TGI (DMS 273 small cell lung): > 100 µM; TGI (XF 498 CNS): 43.8 µM; TGI (RXF-631 renal): > 100 µM; TGI (M19-MEL melanoma): 84.8 µM; TGI (DMS 114 small cell lung): 74.9 µM
CC(C)(C)c1ccc(Oc2ccc(N)cn2)cc1 | 72.9 µM | > 100 µM | 8.02 µM | > 100 | 
Nc1nc([Se])c2ncn(C3OC(CO)C(O)C3O)c2n1 (centres undefined) | 15.1 µM | > 100 µM | 24.8 µM | > 100 | 
N/C(=N\N=C\c1ccc(C(F)(F)F)cc1)NO |  |  |  |  | TGI (DMS 273 small cell lung): 59.9 µM; TGI (XF 498 CNS): 51 µM; TGI (M19-MEL melanoma): > 100 µM; TGI (DMS 114 small cell lung): > 100 µM
COc1ccc(CN2c3ccccc3Sc3ccccc32)c(C(F)(F)F)c1 |  |  | 0.546 µM | > 100 | 

Structure (SMILES) | GI50 (MDA-MB-435) | TGI (MDA-MB-435) | GI50 (PC-3 prostate) | TGI (PC-3 prostate) [µM] | also measured
CCOCCCn1c2c(c3c(O)cccc31)C(=O)c1ccccc1-2 | 18.4 µM | 46.5 µM | 14.7 µM | 36.7 | 
CC1=C(C(=O)Nc2ccccc2)C(c2cccc3ccccc23)C(C(=O)Nc2ccccc2)=C(C)N1 |  |  |  |  | TGI (DMS 273 small cell lung): 40.9 µM; TGI (HOP-18 NSCLC): 46.8 µM; TGI (M19-MEL melanoma): 34.5 µM; TGI (DMS 114 small cell lung): 55.7 µM
CCC(C)Nc1ccc(N)cc1 (centres undefined) | 4.11 µM | 15.3 µM | 2.56 µM | 11.2 | 
COC(=O)[C@H](Cc1cnc[nH]1)NC(=O)[C@@H](NC(=O)Nc1cc(C(F)(F)F)cc(C(F)(F)F)c1)C(C)C | 17.3 µM | 34.3 µM | 14.5 µM | 28.4 | 
CCCCCCCCCCCCCC[N+](C)(C)CCCCCCCCCCCCCC |  |  | 1.85 µM | 4.45 | 
O=C(/C=C\c1ccc([N+](=O)[O-])cc1)c1ccccc(=O)c1O |  | 7.55 µM |  | 9.84 | TGI (MDA-N): > 30.5 µM
CN(C)c1ccc2oc(=O)c3ccccc3c2c1 |  | > 100 µM |  | > 100 | TGI (MDA-N): > 100 µM
Cc1ccccc1NC(=O)c1sc2nc(C)c(C(=O)/C=C/c3ccccc3)cc2c1N | 0.895 µM | 2.33 µM | 1.33 µM | 3.77 | 
CCN(CC)CCCNc1cc(OC)cc2nc3cc(Cl)ccc3nc12 | 1.87 µM | 3.97 µM | 1.97 µM | 7.43 | 
COC(=O)c1ccc(CN2C(=O)C(Cl)=C(Nc3cccc(Cl)c3C)C2=O)cc1 | 7.89 µM | 37.9 µM | 37.6 µM | > 100 | 
O=C1C=CC=C/C1=C1/SC(c2ccccc2)=C(O)N1c1ccccc1 |  |  |  |  | TGI (DMS 273 small cell lung): > 100 µM; TGI (M19-MEL melanoma): > 100 µM; TGI (DMS 114 small cell lung): > 100 µM
COCc1c(-c2cc3cc(C)cc(OC)c3s2)c2c(N)ncnn2c1CN1CCNC(=O)C1 | 4.29 µM | 24 µM | 8.54 µM | > 100 | 
COc1ccc(C/C(=C(\C)c2ccc(OCCN3CCCC3)cc2)c2ccc(OCCN3CCCC3)cc2)cc1 | 1.7 µM | 3.24 µM | 1.75 µM | 4.07 | 
O=c1[nH]c2ccccc2nc1/C=C(\O)c1ccccc1O |  |  |  |  | TGI (DMS 273 small cell lung): > 100 µM; TGI (HOP-18 NSCLC): > 100 µM; TGI (M19-MEL melanoma): > 100 µM; TGI (DMS 114 small cell lung): > 100 µM
CNC(=O)c1c(NC(=O)c2ccc(C(C)(C)C)cc2)sc2c(CN(C)C)c(O)ccc12 | 1.8 µM | 3.34 µM |  |  | 
Cc1cc2c(C)n(Cc3ccccc3Cl)nc2c(C(=O)O)c1C |  |  |  |  | TGI (DMS 273 small cell lung): > 100 µM; TGI (XF 498 CNS): > 100 µM; TGI (HOP-18 NSCLC): > 100 µM; TGI (M19-MEL melanoma): > 100 µM
CC1/C(=N\O)CC(c2ccccc2)N(C)C1c1ccccc1 (centres undefined) |  |  |  |  | TGI (DMS 273 small cell lung): > 100 µM; TGI (RXF-631 renal): > 100 µM; TGI (M19-MEL melanoma): > 100 µM; TGI (DMS 114 small cell lung): > 100 µM
CCc1ccc(CCC(=O)Nc2ncc(Cc3ccc(Cl)cc3)s2)o1 | 0.147 µM | 0.366 µM | 0.403 µM | > 100 | 
O=C(Nc1ccccc1)Nc1ccc2cc3ccc(NC(=O)Nc4ccccc4)cc3nc2c1 | 1.68 µM | 3.15 µM |  |  | 
